{
  "source": "patent US20200270310A1",
  "about": "“MAFG AS A POTENTIAL THERAPEUTIC TARGET TO RESTORE CHEMOSENSITIVITY IN PLATINUM-RESISTANT CANCER CELLS” (FUNDACÓIN PARA LA INVESTIGACIÓN BIOMÉDICA DEL HOSPITAL …, priority 2017, published 2020)",
  "molecules": {"B1": {"name": "GCGGATGAAGACTGGTGTCGATGCATGTGTAGTGCATTTCGAGCCGTTCTATTGGTGTGCCCTAAATACGAGCAAC (nucleic acid)", "chain": "GCGGATGAAGACTGGTGTCGATGCATGTGTAGTGCATTTCGAGCCGTTCTATTGGTGTGCCCTAAATACGAGCAAC", "modifications": "chemistry not given here", "notes": "DNA aptamer selected against the MAFG protein by SELEX"}},
  "key": {"H1299 cells": {"system": "H1299 cells", "test": "Viability to CDDP with and without apMAFG6F", "format": "cell-based, human", "text": "The human cancer cells H23 and A2780, and the HEK-293T epithelial cells were purchased from ATCC (Manassas, USA) and ECACC (Sigma, Spain) and cultured as recommended. The CDDP-resistant variants H23R and A2780R were established in our laboratory as previously described, using CDDP (Farma Ferrer, Spain) for cell viability assays. To validate the results obtained from the resistant cell lines established in our laboratory, we also used the CDDP-resistant lung cancer cell line H1299, with IC50 over 7, purchased from ATCC and maintained as recommended.\n(§1) HEK293 and H23S/R cells were seeded into 96-well plates then transfected with 5, 12.5, 25, 75 and 100 nM of MAFG aptamers or treated with PBS-Mg using Jet Pei PolyPlus transfection reagent (PolyPlus Transfection, USA). The dose of 25 nM aptamer was afterwards used in combination with increased doses of CDDP to assay viability and ROS production as described above. To confirm the aptamer-transfection efficiency cells were seeded in 24-well plates for aptamer isolation and confirmation of aptamer transfection by quantitative analysis. A Myc-DDK-tagged ORF clone of MAFG the negative control pCMV6 were used for in transient transfection (OriGene, USA) in combination with MAFG-aptamers following the same procedure."}, "A2780S cells": {"system": "A2780S cells", "test": "Response to CDDP after overexpression of miR-7 candidate target genes", "format": "cell-based, human", "protocol": "(§2) cDNA plasmids transfection: a Myc-DDK-tagged ORF clone of MAFG, ELK-1 or ABCA1 and the negative control pCMV6 were used for in transient transfection (OriGene, USA). H23 and A2780 cells were plated onto 60-mm dishes at 6×10^5 cells/dish and transfected with a negative control, MAFG, ELK-1 or ABCA1 vectors (IDs: RC221486; RC208921 and RC221861) using jet-PEI DNA Transfection Reagent (PolyPlus Transfection, USA). For stable overexpression, lentiviruses carrying ELK-1 cDNA (Applied Biological Materials, Canada) were obtained by cotransfecting 15 μg of the specific lentiviral vector (pGIPZ-nonsilencing or pLenti-GIII-CMV-hELK-1-GFP-2A-Puro) and […] of each packaging vector (pCD-NL-BH and pMD2-VSV-G) in 10 million HEK 293T cells using Lipofectamine 2000 (Invitrogen, USA). Supernatants were taken at 48 hours posttransfection. A2780S cells were plated onto 60-mm dishes at 1×10^5 cells/dish and transduced with supernatant carrying nonsilencing or ELK-1 lentivirus, and polybrene was added (5 μg/ml).\n(§3) To determine if the expression of the miR-7 candidate target genes was linked to CDDP response, we conducted their in transient overexpression in the sensitive cells comparing their response to CDDP with their parental resistant and sensitive cell lines, both transfected with an empty vector."}, "H23S cells": {"system": "H23S cells", "test": "Response to CDDP after overexpression of miR-7 candidate target genes", "format": "cell-based, human", "protocol": "as §2, §3"}, "[1]": {"system": "human MAFG peptides M1-M10", "test": "ELONA of aptamers with 10 MAFG peptides", "format": "binding", "conditions": "digoxigenin aptamer 20 nM, 1 μg peptide, absorbance at 405 nm", "protocol": "FIG. 9. Characterization of the interaction of aptamers with MAFG. ELONAS in which the Aptamers bound to digoxigenin (20 nM) were incubated 1 hour at 37° C. with 10 peptides (1 μg) previously attached to the plate overnight. After incubating 1 hour with antidigoxigenin-Peroxidase 1/1000, ABTS was added and at 10 minutes the absorbance at 405 nm was measured.\nIn order to identify compounds of the invention and starting from the amino acidic sequence of human MAFG (NCBI Reference Sequence: NP_116100.2) of: SEQ ID NO 2: […]); we designed the following 10 peptides (please refer to table below):\nPeptide M4, amino acids 49-68 corresponds to the basic MAFG region containing the tyrosine residue (Tyr64), as well as the arginine residue (Arg57) required for binding to the DNA, in addition to a nuclear localization signal."}, "MAFG": {"system": "MAFG", "test": "Determination of the MAFG amino acids with which the aptamer binds", "conditions": "aligned with peptides M4 and M5", "text": "FIG. 11. Amino acids of MAFG with which apMNK6F binds (see chA and chB). Interaction zones of apMNK6F aligned with peptides M4 and M5\nMoreover, we determined the precise amino acids of MAFG with which apMNK6F binds (see chA and chB of FIG. 11). […] More precisely, the interaction occurs with amino acids 57ARG, 60LYS, 61ASN, 62ARG, 63GLY, 64TYR, 65ALA, 66ALA, 67SER, 68CYS, 69ARG, 70VAL, 71LYS, and 75GLN of the epitope of MAFG comprising amino acids 57 to 75 RTLKNRGYAASCRVKRVTQ (amino acids 57 to 75)."}, "[2]": {"system": "H23S cells overexpressing MAFG", "test": "CDDP sensitivity of MAFG-overexpressing cells combined with aptamer", "format": "cell-based, human", "protocol": "as §1"}, "[3]": {"conditions": "versus sensitive line with empty vector"}},
  "data": [
    {"molecule": "[NH2][Pt]([NH2])([Cl])[Cl]", "note": "[CDDP, Cisplatin]", "values": [
      {"measurement": "CDDP IC50", "setting": "H1299 cells; H1299, as stated in materials, unit not given", "value": "over 7"},
      {"measurement": "CDDP IC50", "setting": "H1299 cells; untransfected H1299", "value": 10, "unit": "µg/mL"},
      {"measurement": "response to CDDP after transient ELK-1 overexpression", "setting": "A2780S cells; 48 h of exposure to the drug", "value": "did not change the response to CDDP"},
      {"measurement": "sensitivity to CDDP after stable ELK-1 overexpression", "setting": "A2780S cells; lentiviral transduction", "value": "did not change the sensitivity to CDDP"},
      {"measurement": "CDDP resistance index after MAFG overexpression", "setting": "A2780S cells; [3]", "value": 1.6},
      {"measurement": "CDDP RI after ABCA1 overexpression", "setting": "H23S cells; versus empty vector, not statistically significant (p=0.796)", "value": 1.5},
      {"measurement": "CDDP-RI after MAFG overexpression", "setting": "H23S cells; [3]", "value": 1.7}
    ]},
    {"molecule": "B1", "values": [
      {"measurement": "interaction of aptamers with the 10 MAFG peptides by ELONA", "setting": "[1]", "value": "recognized peptide M4"},
      {"measurement": "interaction zone of the aptamer on MAFG", "setting": "MAFG", "value": "interaction occurs mainly with peptide M4"},
      {"measurement": "CDDP sensitivity of MAFG-overexpressing cells with aptamer", "setting": "[2]", "value": "rescued the phenotype and re-sensitized the cells"}
    ]}
  ]
}
